“And” between values parts separate entries of the source, which are not always exact repeats. Identical values can stand only once.
Assays:
U-2 OS cells [1] = test: Telomere length (flow cytometry, PNA probe), cell cycle distribution (PI), apoptosis and TRAP status in U-2 OS cells; format: cell-based, human
Experimental: (§1) The ALT cell lines were treated with therapeutic concentrations of AZT, to determine if slippage telomeric DNA synthesis could be inhibited by AZT-TP, and thereby induce telomere shortening. Telomere length in AZT treated and untreated cell lines was measured by flow cytometry with a telomere specific peptide nucleic acid (PNA) probe. To determine cell cycle distribution, cells were stained with propidium iodide (PI).
Rate of DNA synthesis was determined by incorporation of 5-bromodeoxyuridine (BdU). […] It is important to note that changes in cell cycle distribution, DNA synthesis and telomere length were rapid and could be detected after only 10 days of AZT treatment.
Telomere length in untreated and GCV treated cells was measured by flow cytometry with a telomere-specific PNA probe as described above.
To determine cell cycle distribution, cells were stained with propidium iodide (PI).
(§2) Both telomerase positive (Hela) telomerase negative (U-2 OS) cell lines were used. Appropriate assays were performed to detect and confirm telomerase/L1RT specific activity in these cells.
(§3) The U-2 OS (osteosarcoma) and HeLa (uterine cervix) cell lines used in this study were obtained from American Type Culture Collection (Rockville, Md.). Cells were cultured in D-MEM media supplemented with 10% fetal calf serum at 37° C. in a humidified atmosphere of 5% CO2. For treatment of the cells with ACV, the media was supplemented with 3 μM of acyclovir (acyclovir, TEVA Pharm. Ind. Ltd, Israel). For treatment of the cells with GCV, the media was supplemented with 1.5 μM of GCV (Cymevene, Hoffman-La Roche). For treatment of the cells with PCV, the media was supplemented with 1.5 μM of PCV (penciclovir, Merck & Co.).
(§4) Real time TRAP assay was performed as described (Wege et al., SYBR Green real-time telomeric repeat amplification protocol for the rapid quantification of telomerase activity. Nucleic Acids Res. 2003; 31(2):E3-3). For telomere length measurement by flow cytometry, cells were stained with telomere specific FITC conjugated (C3TA2)3 PNA (Applied Biosystems) probe and contrastained with 0.06 μg/ml PI as described by Rufer, N., Dragowska, W., Thornbury G., Roosnek, E., Lansdorp P. M. Telomere length dynamics in human lymphocyte subpopulations […]. Nat. Biotechnol. 16, 743-747 (1998)).
(a) In vitro arrays: U-2 OS cells were incubated with 0.2 μM of AZT for 22 days. Actively growing clones were analyzed by flow-FISH with telomere specific PNA probe, and in real time TRAP assay using HeLa cells as positive control. Isolated actively growing clones were different from parental cells in DNA content and telomere length.
(§5) Telomere length in SN 1 or SN 2 treated and untreated cell lines was measured by flow cytometry with a telomere—specific peptide nucleic acid PNA) probe. To determine cell cycle distribution, cells were stained with propidium iodide (PI).
(§6) The U-2 OS (osteosarcoma) and Hela (uterine cervix) cell lines used in this study were obtained from American Type Culture Collection (Rockville, Md.). Cells were cultured in D-MEM media supplemented with 10% fetal calf serum at 37° C. in a humidified atmosphere of 5% CO2. For treatment of the cells with SN 1 or SN 2, the media was supplemented with 1.5 μM of SN1 or SN2.
(§7) For telomere length measurement by flow cytometry, cells were stained with telomere specific FITC conjugated (C3TA2)3 PNA (Applied Biosystems) probe and contra-stained with 0.06 μg/ml PI as described by Rufer, N., Dragowska, W., Thornbury G., Roosnek, E., Lansdorp P. M. Telomere length dynamics in human lymphocyte subpopulations […]. Nat. Biotechnol. 16, 743-747 (1998)).

[2] = test system: Saos-2 osteosarcoma cells; test: Telomere length (flow cytometry, PNA probe), cell cycle distribution (PI) and apoptosis in Saos-2 cells; format: cell-based, human; conditions: therapeutic concentrations of AZT, 14 days
Experimental: as §1

HeLa cells [3] = test: Telomere length (flow cytometry, PNA probe), cell cycle distribution (PI) and apoptosis in HeLa cells; format: cell-based, human
Experimental: as §1
(§8) The origin of the cell lines are uterine cervix (HeLa) and epithelial ovarian (NuTu-19). Cells were cultured in D-MEM media supplemented with 10% fetal calf serum at 37° C. in a humidified atmosphere of 5% CO2. For treatment of the cells with GCV, the media was supplemented with 1.5 μM of GCV (Cymevene, Hoffman-La Roche). For treatment of the cells with ACV, the media was supplemented with 3 μM of Acyclovir (Acyclovir, TEVA Pharm. Ind. Id. Israel).
as §4, §2, §3, §5, §6, §7

NuTu-19 cells = test: Telomere length (flow cytometry, PNA probe), cell cycle distribution (PI) and apoptosis in NuTu-19 cells; format: cell-based; conditions: AZT even at elevated concentrations e.g., 100 μM
Experimental: as §8, §4

U-2 OS/RAS cells = test: Prevention and treatment of telomerase negative (ALT) tumors in nude mice injected s.c. with U-2 OS/RAS cells; format: in vivo
Experimental: (a) Nude mice injected with U-2 OS/RAS cells: Crl1:CD1-/nu mice were purchased from Charles River Laboratories, Charles River Deutschland GmbH (Dec. 23, 2004). A total of 12 Nude mice were injected s.c. with 6×10^5 U-2 OS/RAS cells. These mice were divided into experimental and control groups.
The experimental group of mice started to receive AZT in drinking water (1 mg/ml) from the day one. In the control group, mice developed tumors (in N1 by the 26th day; in N2 by the […] and in N3 by the 41st day following the tumor cell injection).
All mice without tumors were sacrificed. One mouse from control group that developed tumors first was sacrificed on the 51 day following the tumor cell injection. Tumor tissue was mechanically separated to raise cell suspension. About 20 million of cells were seeded in McCoy's 5 A media supplemented with 10% FCS. The tissue cultured cells were used for further analysis.
Two mice from control group with tumors started to receive AZT in drinking water (1 mg/ml) from day 52. One mouse had died on day 80. Second was sacrificed on day 110 following the tumor cell injection. Tumor tissue was collected and stored at −80° C. for further analysis.

U-2 OS cells [4] = conditions: therapeutic concentrations, 14 days; reported in WO 2005/069880; cited from earlier work
[5] = test system: Saos-2 osteosarcoma cells; conditions: therapeutic concentrations, 14 days; reported in WO 2005/069880; cited from earlier work
HeLa cells [6] = format: in vivo
Experimental: For in vivo assay, appropriate host, e.g., nude (nu/nu) mice of about 5-7 weeks old are obtained and maintained in pathogen-free conditions. Approximately, 1×10^6 HeLa cells (and/or U-2 OS cells) contained in 200 μl of serum-free media are delivered to all animals, briefly anaesthetize with Metofane, by subcutaneous (s.c.) injection in flank. Then the mice are divided into experimental group and control group. Appropriate concentrations of compounds of the formulas (I) to (VI), ACV, PCV and/or GCV are used for tumor growth progression or regression assays.
In one embodiment, impairment of s.c. tumor growth or time to progression rather than decrease in size of an established tumor (regression) is assessed. In this embodiment, starting from the day zero, mice in the experimental group receive GCV in drinking water ad libitum. Concentration of GCV in water can be 2 mg/ml. Fresh solution of GCV is supplied every 3 days. Mice in the control group receive only drinking water. Tumors are measured every 2-3 days. Mice are sacrificed when tumors exceed 1 cm^3. Tumor volume is calculated with formula 4/3πr^3, where r is the radius of the tumor.
Experimental group received valganciclovir in drinking water from day 0. Human cancer HeLa cell culture was purchased from ATCC. In all, 12 CD1/-nu and 12 NMRiI/-nu nude mice were purchased from Charles River Laboratories, Charles River Deutschland GmbH. These nude mice were injected s.c. with 3×10^5 Hela cells. Mice in the experimental groups (6 mice per strain) were exposed to Valcyte® (val-ganciclovir) in drinking water (1 mg/ml) from day 0.
(a) In vivo assays using Valganciclovir and zidovudine (AZT) combination: Human cancer HeLa cell culture was purchased from ATCC. A total of 24 CD1/-nu nude mice were purchased from Charles River laboratories, Charles River Deutschland GmbH. These mice were injected s.c. with 1×10^5 HeLa cells. The tumor volumes were determined by measurement of maximal and minimal diameters of the tumor. The calculations were conducted using the formula V=4/3 πRmax×Rmin^2, where Rmax−½ of maximal diameter of the tumor, and Rmin−½ of minimal diameter of the tumor. nude mice were injected s.c. with 1×10^5 Hela cells.
Of the 12 treated mice, after 20 days of double cocktail treatment, six mice were administered with a triple cocktail (Valcyte®+Retrovir®+ddI at the dose of 1 mg/ml each in drinking water for a further period 21 days (see Example 7 below) and only six mice continued to receive the double cocktail for another 21 days at which time tumor measurements were taken for all mice injected with HeLa cells. Of the remaining 12 mice injected with HeLa cells but untreated with any cocktail or anticancer agent thus far, six were maintained as controls for the rest of the duration of the experiment. The other six were treated with Xeloda® 67 days after the injection of HeLa cells (see Example 7 below).
As mentioned in Example 5 above, a total of six mice, after 20 days of double cocktail treatment, were administered with a triple cocktail (Valcyte®+Retrovir®+ddI at the dose of 1 mg/ml each in drinking water) for a further period 21 days. After 14 days of triple cocktail treatment, Xeloda® at a concentration 1 mg/ml was added to the triple cocktail. Six mice previously untreated with any drug for 67 days after the injection of HeLa cells were treated with Xeloda® at a concentration 1 mg/ml in drinking water. Tumor measurements were taken in all mice 75 days following the injection of HeLa cells.

[7] = test system: inoperable carcinoma of stomach; format: in vivo, human; conditions: one patient
Experimental: (a) Background therapy: 1 tablet of Retrovir® (AZT) 300 mg and 1 tablet of Zovirax™ (acyclovir, Glaxo Welcome), 400 mg/Valcyte® (valganciclovir) 450 mg/Valtrex® (Val-ACV) 500 mg all BID. Different acyclic nucleoside analogs were used during the 83 days of background therapy for reasons related to market availability.

MH22A cells = test: MH22a hepatoma tumors in C3HA mice, Cocktails 1-6 followed by added Xeloda (Example 10c, second experiment); format: in vivo, C3HA inbred mice
Experimental: In Vivo assays using the compounds of the formulas (I) to (IV) and valine esters of formulas I and II each in a triple cocktail with other nucleoside analogs and tumor in combination with AZT and ddI were carried out as follows:
8-10 weeks old male C3HA inbred mice (immunocometent mice) were purchased from Laboratory Animals Breeding Facility of Russian Academy of Medical Science (Rappalovo, Leningrad region). 3×10^5 MH22a cells were injected s.c. into back flank of 200 mice. Ten days after the injections, mice bearing developing tumors (14.15 mm^3) (the tumor volume calculated using the formula π/6 DmaxDmin^2) were selected and randomly divided into different experimental groups as set forth below:
Cocktail 1—Valacyclovir (0.166 mg/ml)+AZT (0.1 mg/ml)+ddI (0.066 mg/ml)−40 mice;
Cocktail 2—SN-1 (1 mg/ml)+AZT (0.1 mg/ml)+ddI (0.066 mg/ml)−10 mice;
Cocktail 3—SN-3 (1 mg/ml)+AZT (0.1 mg/ml)+ddI (0.066 mg/ml)−10 mice;
Cocktail 4—SN4 (1 mg/ml)+AZT (0.1 mg/ml)+ddI (0.066 mg/ml)−10 mice;
cocktail 5—Val-SN-1 (0.166 mg/ml)+AZT (0.1 mg/ml)+ddI (0.066 mg/ml)−20 mice; and
Cocktail 6—Val-SN-2 (0.166 mg/ml)+AZT (0.1 mg/ml)+ddI (0.066 mg/ml)−20 mice; and
Control group—Capecitabine (Xeloda®) (1 mg/ml) in drinking water-mice.
Valacyclovir (Valtrex® manufactured by GlaxoSmithKline) is a prodrug of acyclovir, which is an acyclic nucleoside analog. Didanosine (ddI) and AZT are non-acyclic-nucleoside analogs. The drugs, at the concentrations indicated above, were administered to the mice in drinking water. Two weeks following the cocktail treatments Xeloda® (1 mg/ml) was added to each of the cocktails and continued for the remaining experimental period. In the control group, mice were treated only with Xeloda® (1 mg/ml) in drinking water and this treatment started at the same time as the Xeloda® treatments in the cocktail groups. […] Tumor volumes (mm^3) in each injected mice were calculated, using the formula π/6 DmaxDmin^2, every week for four consecutive weeks following the commencement of the treatment with the drugs.

[8] = Xeloda 1 mg/ml added to cocktails after two weeks

Structure (SMILES)	telomerase status (real time TRAP assay) of actively growing clones (U-2 OS cells [1]; 0.2 μM of AZT for 22 days)	telomere length and rate of DNA synthesis (BdU incorporation) (U-2 OS cells [1]; AZT for different amounts of time)	telomere length, apoptosis and cell cycle distribution (U-2 OS cells [1]; therapeutic concentrations of AZT, 14 days)	telomere length, apoptosis and cell cycle distribution [2]	telomere length or cell cycle distribution (HeLa cells [3]; AZT at the chosen concentration, same conditions as ALT cells)	telomere length or cell cycle distribution (HeLa cells [3]; AZT even at elevated concentrations e.g., 100 μM)	telomere length or cell cycle distribution (NuTu-19 cells)	growth of established ALT tumors (U-2 OS/RAS cells; AZT in drinking water (1 mg/ml) from day 52)	tumor development (U-2 OS/RAS cells; AZT in drinking water (1 mg/ml) from day one, three of six control mice developed tumors)	telomere length, cell cycle and apoptosis (U-2 OS cells [4])	telomere length, cell cycle and apoptosis [5]	average size of tumors less compared to the untreated control group (HeLa cells [6]; Xeloda 1 mg/ml in drinking water from day 67) [%]	survival (HeLa cells [6]; drugs 1 mg/ml each in drinking water, 75 days following injection of HeLa cells) [%]	Tumor Volume (mm^3) in nude mice 75 days following the injection of HeLa cells (HeLa cells [6]; mean value of 4 mice)	toxicity in the patient [7]	Number tumor-free (MH22A cells; 4 weeks of treatment, Xeloda 1 mg/ml added to cocktails after two weeks)	Number died during the 4 week treatment period (MH22A cells; [8])	Number showing tumors after four weeks of treatment (MH22A cells; [8])	Tumor volume at the end of the experimental period (MH22A cells; individual tumor-bearing mice, formula π/6 DmaxDmin^2)
Cc1cn([C@H]2C[C@H](N=[N+]=[N-])[C@@H](CO)O2)c(=O)[nH]c1=O [AZT, azido-2′,3′-dideoxythymidine]	positive for telomerase	progressive telomere shortening and decrease in DNA synthesis	telomere shortening, massive apoptosis and G2 arrest	telomere shortening, massive apoptosis and G2 arrest	no effect on telomere length or cell cycle distribution	no effect on telomere length or cell cycle distribution	no effect on telomere length or cell cycle distribution	slowing of tumor growth	No one mice from AZT treated group had developed tumors	telomere shortening, G2 arrest and massive apoptosis	telomere shortening, G2 arrest and massive apoptosis	–	–	–	–	–	–	–	–
CCCCCOC(=O)Nc1nc(=O)n([C@@H]2O[C@H](C)[C@@H](O)[C@H]2O)cc1F [Xeloda®]	–	–	–	–	–	–	–	–	–	–	–	17	66	1811.0 (mean value) mm^3	caused toxicity in the patient	0	2	6	6288 mm^3 (2×) and 10480 mm^3 and 1152 mm^3 and 2146 mm^3 and 4192 mm^3
